Source: patent publication US8541464B2, “Treatment of atrial fibrillation” (HUYA Biosciences International LLC, priority 2009, dated 2013)
Values joined by “and” are separate entries in the source; they are usually repeats but may differ in a detail not shown here. Equal values may be shown once.

Columns and labels:
[1] = Plasma PK in Beagle dog after oral and IV administration; assay type: in vivo; parameters: Tmax: unit not given here
Method: In dogs an PO dose of 40 mg/kg (efficacious oral dose range) gives peak levels of 2.1 μg/mL (4.6 μM). […] These PK data and extrapolated conclusion are in agreement with the CV safety study, where PK after 15 minute infusion was conducted. In general, the mean concentrations peaked at the 10-minute time point, post-initiation, for each 15-minute infusion of sulcardine sulfate at 10 and 30 mg/kg (efficacious dose against ventricular arrhythmia). The mean peak plasma concentrations were 1.8 (4.2 μM) and 11.2 μg/mL (24.6 μM), respectively (data not shown). These values were well below in the case of the lower dose to barely reaching some but not all atrial cell patch clamp IC50s on various ion channels, although still associated with significant drops in mean arterial pressure, tachycardia, QT interval prolongation and changes in ventricular contractility were observed.

anesthetized dogs = assay: Cardiovascular safety in anesthetized dogs, escalating 15-minute IV infusions (hemodynamics, histamine, ECG); assay type: in vivo, dog
Method: (§1) Dogs were administered morphine (2 mg/kg subcutaneously) approximately 10-19 minutes prior to administration of anesthesia. Dogs were anesthetized with 1% α-chloralose (100 mg/kg intravenous), followed by a constant infusion of α-chloralose (35-75 mg/kg/hr, IV). Two healthy female dogs were administered escalating doses of sulcardine sulfate intravenously over 15 minutes in an acetate buffer system at dose levels of 10, 30 and 90-mg/kg with dose administrations separated by 60 minutes. Following drug administration, dogs were evaluated for ventricular, pulmonary and peripheral hemodynamic changes using Swanz Ganz and femoral catheters as well as by monitoring of blood oxygen saturation, test article blood level, body temperature, blood biochemistries, hematologies, ECG, and histamine.
as §1, with “90 mg/kg” for “90-mg/kg”, “minutes. Another set of two dogs received test article after pre-treatment with diphenhydramine (1 mg/kg administered 30 minutes prior to start of test article infusion).” for “minutes.”, “biochemistry, hematology,” for “biochemistries, hematologies,”, “histamine levels.” for “histamine.”

Cynomolgus monkeys = assay: Cardiovascular safety in anesthetized Cynomolgus monkeys, escalating 15-minute IV infusions; assay type: in vivo, Cynomolgus monkey
Method: Female Cynomolgus monkeys were administered morphine (2 mg/kg subcutaneously) prior to induction of anesthesia. Monkeys were anesthetized with 1% α-chloralose (100 mg/kg intravenous), followed by a constant infusion of α-chloralose 40 mg/kg/hr, IV which was reduced to 30 mg/kg/hr approximately 92 to 98 min pre treatment due to low blood pressure. Monkeys were placed on a heating pad set to maintain the animal's body temperature at approximately 37° C. Body temperature was monitored throughout the experiment via a rectal thermometer or via the Swan Ganz (thermodilution catheter) once implanted. Monkeys were intubated and placed on a ventilator supplemented with oxygen to maintain oxygenation within the normal physiological range. The animals were mechanically ventilated at a rate of 12 breaths/minute and a pressure of 17-18 cm H2O. The following parameters were regularly monitored in order to ensure proper ventilation of the animals but are not reported: SpO2, inspiratory and expiratory CO2, inspiratory O2 and respiratory rate.
(§2) A Swan Ganz (thermodilution catheter) was inserted into the right femoral vein via phlebotomy and advanced into the pulmonary artery for cardiac output measurements. A catheter was inserted in the left femoral artery via an arteriotomy for blood gas determination. Another catheter was inserted in the left femoral vein for blood collection for toxicokinetic evaluation. Finally, an incision was also performed on the left side of the neck to expose the left carotid artery and an electronic dual pressure sensor catheter (Millar) was placed via arteriotomy and advanced into the left ventricle. The catheter was positioned to simultaneously collect left ventricle blood pressure measurements as well as aortic pressure. In addition, a temporary catheter was placed in any of the cephalic veins for administration of Lactated Ringers at 10 mL/kg/hr throughout the course of the experiment.
(§3) Following surgical preparation, hemodynamic and electrocardiographic parameters were allowed to stabilize for at least 15 minutes. The vehicle control and test article were then administered, and hemodynamic, electrocardiographic parameters were monitored. Histamine and plasma PK data was obtained.

dogs = assay: Heart rate and blood pressure during slow (45 min) infusion in dogs; assay type: in vivo, dog; conditions: for Heart rate / Mean blood pressure: 14 mg/kg i.v. over 45 minutes
Method: Three additional animals received sulcardine sulfate (14 mg/kg, i.v.) infused over 45 minutes. The purpose of this study was to investigate whether or not a slow infusion (45 min) of sulcardine sulfate would affect heart rate and blood pressure. […] The change in blood pressure was modest, most likely due to a compensatory increase in the resting heart rate.

[2] = Plasma concentration in primate cardiovascular safety study; assay type: in vivo, Cynomolgus monkey
Method: as §2
as §3, with “obtained. […]” for “obtained.”

What does the source list for sulcardine sulfate?
K10 ([1]; 40 mg/kg po): 0.1748 ± 0.0306 h⁻¹; Tmax ([1]; 40 mg/kg po): 1.508 ± 0.4160; peak levels ([1]; dogs, PO 40 mg/kg, 40 mg/kg): 2.1 μg/mL and 4.6 μM; mean arterial pressure initial increase (anesthetized dogs; 10 mg/kg, one animal out of two, maximum at 10 minutes post start of dosing): +66%; QTc prolongation (anesthetized dogs; 10 mg/kg, within 5 minutes of initiation): ≤ 20 ms; maximum histamine plasma concentration (anesthetized dogs; 10 mg/kg, at 5 min and 10 min post-Rx respectively): 1874 nM and 1919 nM; maximum histamine plasma concentration (anesthetized dogs; 30 mg/kg): 251 nM and 183 nM; QTc prolongation (anesthetized dogs; 30 mg/kg infusion, cumulative): approximately 35 msec; maximum histamine plasma concentration (anesthetized dogs; 90 mg/kg): 99 nM and 64 nM; mortality (anesthetized dogs; 90 mg/kg, final 15-minute infusion): all animals succumbed; QRS widening (anesthetized dogs; all dose levels (10, 30, 90 mg/kg)): QRS widening was also noted at all dose levels; heart rate (HR) change (relatively stable) (Cynomolgus monkeys; 10 mg/kg): ≤ 10%; histamine levels (Cynomolgus monkeys; 10 mg/kg): no appreciable increases; PR interval increase (Cynomolgus monkeys; 10 mg/kg, per animal): +18% and +30%; increase of QRS from baseline (Cynomolgus monkeys; 10 mg/kg, per animal): 11% and 26%; conduction abnormality (Cynomolgus monkeys; 30 mg/kg infusion, animal 1501A): right bundle branch block (RBBB); mean pulmonary arterial pressure increase (Cynomolgus monkeys; 30 mg/kg, at the completion of infusion): up to +245%; conduction abnormality (Cynomolgus monkeys; 90 mg/kg infusion / shortly before death, animal 1602B): sino-atrial block with a ventricular escape rhythm and RBBB; mortality (Cynomolgus monkeys; 90 mg/kg, before completion of the 15-minute infusion): death in both animals; QRS interval increase from baseline (Cynomolgus monkeys; 90 mg/kg, per animal): 88% and 133%; QTcB increase from baseline (Cynomolgus monkeys; 90 mg/kg, per animal): 78 ms and 112 ms; PR interval increase (Cynomolgus monkeys; 30 and 90 mg/kg): Further increases were noted; histamine levels (Cynomolgus monkeys; Animal No. 1501A, after 10 minutes of the 30 mg/kg infusion): transient increases; histamine levels (Cynomolgus monkeys; Animal No. 1602B, any dose levels): No appreciable increases; Heart rate (dogs; time 10 minutes): 95.0 ± 7.6 bpm; Mean blood pressure (dogs; time 10 minutes): 165.3 ± 0.3 mmHg; Heart rate (dogs; time 25 minutes): 115.0 ± 5.8 bpm; Mean blood pressure (dogs; time 25 minutes): 167.7 ± 9.8 mmHg; Heart rate (dogs; time 40 minutes): 115.0 ± 5.0 bpm; Mean blood pressure (dogs; time 40 minutes): 162.7 ± 11.3 mmHg; Heart rate (dogs; time 55 minutes): 103.3 ± 6.0 bpm; Mean blood pressure (dogs; time 55 minutes): 152.0 ± 16.2 mmHg; effect of slow intravenous administration on resting blood pressure and/or heart rate (dogs; total intravenous dose of 14 mg/kg over 45 min): did not result in a marked change in resting blood pressure and/or heart rate; mean peak plasma concentration ([2]; 90 mg/kg, 15 minute infusion): 845.5 ug/mL and 1,860.1 μM; Cmax ([2]; primates, read-out: Cmax that led to observed side effects such as hypotension): 21 µM
